Laboratory results as given in patent US10513529B2, “1,2,4-triazolo-[3,4-b]-1,3,4-thiadiazole derivatives” (GALENICA S.A., priority 2016, dated 2019).

Experiments:
[1] = system: PC-3 human hormone-resistant prostate cancer cell line; experiment: MTT cytostatic-cytotoxic activity, PC-3; assay type: cell-based; conditions: PC-3, 48 h treatment; for GI50 / IC50: Homo sapiens; for IC50: kills 50% of the cells
[2] = system: MOLT-4 human acute T-leukemia cell line; experiment: MTT cytostatic-cytotoxic activity, MOLT-4; assay type: cell-based; conditions: MOLT-4, 48 h treatment; for GI50 / IC50: Homo sapiens; for IC50: kills 50% of the cells
C57BI/6 mice = experiment: in vivo; conditions: i.p., acute toxicity
Description: (§1) The acute toxicity of the compounds was assessed from lethality by testing different concentrations, starting at 100mg/kg. […] For intraperitoneal (i.p.) treatment, stock solutions of the tested compounds were prepared immediately before use. They were suspended in corn oil in the desired concentration following initial dissolution in 10% dimethylsulfoxide (DMSO). C57BI/6 male and female were used for toxicity studies. Mice were kept under conditions of constant temperature and humidity in sterile cages with water and food.

in vivo = conditions: both sexes, mouse, in vivo, ip; C57BI/6 mice, acute toxicity
Description: as §1

[3] = system: A-549 human lung carcinoma cell line; experiment: MTT cytostatic-cytotoxic activity, A-549; assay type: cell-based; conditions: for TGI: A-549, 48 h treatment; for GI50 / IC50: Homo sapiens, A549, A-549, 48 h treatment; for IC50: kills 50% of the cells
[4] = system: all 9 human cancer cell lines; experiment: MTT cytostatic-cytotoxic activity, all 9 human cancer cell lines; assay type: cell-based

Compound | GI50 [1] | IC50 [1] | TGI [1] | GI50 [2] | IC50 [2] | TGI [2] | LD10 (C57BI/6 mice) | LD50 (in vivo) | TGI [3] | GI50 [3] | IC50 [3] | LD50 (C57BI/6 mice) | IC50 ([4]; Homo sapiens, read-out: (cytotoxic)) | GI50 ([4]; in all 9 human cancer cell lines, read-out: IG50 (cytostatic))
COc1cc(Cc2nnc3sc(/C=C/c4ccc(F)cc4)nn23)c(S(=O)(=O)N(C)C)cc1OC [TS25, 3-[2-(N,N-dimethylsulfamoyl)-4,5-dimethoxybenzyl]-6-(E)-4-fluorostyryl-1,2,4-triazolo[3,4-b]-1,3,4-thiazole] | 8 µM | 69 µM | 24 µM | 16 µM | 78 µM | 29 µM | >500 mg/kg | 345 mg/kg | 56 µM | 11 µM | 87 µM |  |  | 
COc1ccc(Cc2nn3c(Cc4cc(OC)c(OC)cc4S(=O)(=O)N(C)C)nnc3s2)cc1 [TS50, 3-[2-(N,N-dimethylsulfamoyl)-4,5-dimethoxybenzyl]-6-(4-methoxybenzyl)-1,2,4-triazolo[3,4-b]-1,3,4-thiazole] | 44 µM | > 100 µM | >100 µM | 10 µM | > 100 µM | >100 µM | >500 mg/kg | > 500 mg/kg | >100 µM | 35 µM | > 100 µM | >500 mg/kg |  | 
COc1cc(Cc2nnc3sc(-c4ccc(Cl)cc4)nn23)c(S(=O)(=O)N(C)C)cc1OC [TS63, 3-[2-(N,N-dimethylsulfamoyl)-4,5-dimethoxybenzyl]-6-(4-chlorophenyl)-1,2,4-triazolo[3,4-b]-1,3,4-thiazole] | 20 µM | > 100 µM | 45 µM | 6 µM | 78 µM | 45 µM | >500 mg/kg | 430 mg/kg | 36 µM | 14 µM | 92 µM |  |  | 
COc1cc(Cc2nnc3sc(-c4ccccc4)nn23)c(S(=O)(=O)N(C)C)cc1OC [TS167, 3-[2-(N,N-dimethylsulfamoyI)-4,5-dimethoxy-benzyl]-6-phenyl-1,2,4-triazolo[3,4-b]-1,3,4-thiazole] | 62 µM | > 100 µM | >100 µM | 42 µM | > 100 µM | >100 µM | >500 mg/kg | > 500 mg/kg | >100 µM | 74 µM | > 100 µM | >500 mg/kg | > 100 µM | < 100 µM
COc1cc(Cc2nnc3sc(-c4ccccc4N)nn23)c(S(=O)(=O)N(C)C)cc1OC [TS57, 3-[2-(N,N-dimethylosulfamoyl)-4,5-dimethoxybenzyl]-6-(2-aminophenyl)-1,2,4-triazolo[3,4-b]-1,3,4-thiazole] | > 100 µM | > 100 µM | >100 µM | 94 µM | > 100 µM | >100 µM | >500 mg/kg | > 500 mg/kg | >100 µM | > 100 µM | > 100 µM | >500 mg/kg |  | 
COc1cc(Cc2nnc3sc(Cc4ccccc4)nn23)c(S(=O)(=O)N(C)C)cc1OC [TS62, 3-[2-(N,N-dimethylsulfamoyl)-4,5-dimethoxybenzyl]-6-benzyl-1,2,4-triazolo[3,4-b]-1,3,4-thiazole] | 27 µM | > 100 µM | >100 µM | 7 µM | > 100 µM | 55 µM | >500 mg/kg | 480 mg/kg | 71 µM | 15 µM | > 100 µM |  |  | 
COc1cc(Cc2nnc3sc(-c4ccc(N)cc4)nn23)c(S(=O)(=O)N(C)C)cc1OC [TS71, 3-[2-(N,N-dimethylsulfamoyl)-4,5-dimethoxybenzyl]-6-(4-aminophenyl)-1,2,4-triazolo[3,4-b]-1,3,4-thiazole] | > 100 µM | > 100 µM | >100 µM | 55 µM | > 100 µM | >100 µM | >500 mg/kg | > 500 mg/kg | >100 µM | > 100 µM | > 100 µM | >500 mg/kg |  | 
COc1cc(Cc2nnc3sc(/C=C/c4ccc(Cl)cc4)nn23)c(S(=O)(=O)N(C)C)cc1OC [TS26, 3-[2-(N,N-dimethylsulfamoyl)-4,5-dimethoxybenzyl]-6-(E)-4-chlorostyryl-1,2,4-triazolo[3,4-b]-1,3,4-thiazole] | 19 µM | 86 µM | 47 µM | 32 µM | > 100 µM | 81 µM | >500 mg/kg | 365 mg/kg | 90 µM | 20 µM | > 100 µM |  |  | 
